Legend:
[1] = test system: E7 antigen specific immune response; experiment: Immunogenicity analysis of different immunogenic composition (humoral and cell mediated); type: in vivo; conditions: mice
CD91 = CD91 (Homo sapiens, UniProt Q07954); conditions: read-out: binding affinity to CD91 (Kd); cited from earlier work
Sequence of CD91 (Q07954 20-4544, species assumed): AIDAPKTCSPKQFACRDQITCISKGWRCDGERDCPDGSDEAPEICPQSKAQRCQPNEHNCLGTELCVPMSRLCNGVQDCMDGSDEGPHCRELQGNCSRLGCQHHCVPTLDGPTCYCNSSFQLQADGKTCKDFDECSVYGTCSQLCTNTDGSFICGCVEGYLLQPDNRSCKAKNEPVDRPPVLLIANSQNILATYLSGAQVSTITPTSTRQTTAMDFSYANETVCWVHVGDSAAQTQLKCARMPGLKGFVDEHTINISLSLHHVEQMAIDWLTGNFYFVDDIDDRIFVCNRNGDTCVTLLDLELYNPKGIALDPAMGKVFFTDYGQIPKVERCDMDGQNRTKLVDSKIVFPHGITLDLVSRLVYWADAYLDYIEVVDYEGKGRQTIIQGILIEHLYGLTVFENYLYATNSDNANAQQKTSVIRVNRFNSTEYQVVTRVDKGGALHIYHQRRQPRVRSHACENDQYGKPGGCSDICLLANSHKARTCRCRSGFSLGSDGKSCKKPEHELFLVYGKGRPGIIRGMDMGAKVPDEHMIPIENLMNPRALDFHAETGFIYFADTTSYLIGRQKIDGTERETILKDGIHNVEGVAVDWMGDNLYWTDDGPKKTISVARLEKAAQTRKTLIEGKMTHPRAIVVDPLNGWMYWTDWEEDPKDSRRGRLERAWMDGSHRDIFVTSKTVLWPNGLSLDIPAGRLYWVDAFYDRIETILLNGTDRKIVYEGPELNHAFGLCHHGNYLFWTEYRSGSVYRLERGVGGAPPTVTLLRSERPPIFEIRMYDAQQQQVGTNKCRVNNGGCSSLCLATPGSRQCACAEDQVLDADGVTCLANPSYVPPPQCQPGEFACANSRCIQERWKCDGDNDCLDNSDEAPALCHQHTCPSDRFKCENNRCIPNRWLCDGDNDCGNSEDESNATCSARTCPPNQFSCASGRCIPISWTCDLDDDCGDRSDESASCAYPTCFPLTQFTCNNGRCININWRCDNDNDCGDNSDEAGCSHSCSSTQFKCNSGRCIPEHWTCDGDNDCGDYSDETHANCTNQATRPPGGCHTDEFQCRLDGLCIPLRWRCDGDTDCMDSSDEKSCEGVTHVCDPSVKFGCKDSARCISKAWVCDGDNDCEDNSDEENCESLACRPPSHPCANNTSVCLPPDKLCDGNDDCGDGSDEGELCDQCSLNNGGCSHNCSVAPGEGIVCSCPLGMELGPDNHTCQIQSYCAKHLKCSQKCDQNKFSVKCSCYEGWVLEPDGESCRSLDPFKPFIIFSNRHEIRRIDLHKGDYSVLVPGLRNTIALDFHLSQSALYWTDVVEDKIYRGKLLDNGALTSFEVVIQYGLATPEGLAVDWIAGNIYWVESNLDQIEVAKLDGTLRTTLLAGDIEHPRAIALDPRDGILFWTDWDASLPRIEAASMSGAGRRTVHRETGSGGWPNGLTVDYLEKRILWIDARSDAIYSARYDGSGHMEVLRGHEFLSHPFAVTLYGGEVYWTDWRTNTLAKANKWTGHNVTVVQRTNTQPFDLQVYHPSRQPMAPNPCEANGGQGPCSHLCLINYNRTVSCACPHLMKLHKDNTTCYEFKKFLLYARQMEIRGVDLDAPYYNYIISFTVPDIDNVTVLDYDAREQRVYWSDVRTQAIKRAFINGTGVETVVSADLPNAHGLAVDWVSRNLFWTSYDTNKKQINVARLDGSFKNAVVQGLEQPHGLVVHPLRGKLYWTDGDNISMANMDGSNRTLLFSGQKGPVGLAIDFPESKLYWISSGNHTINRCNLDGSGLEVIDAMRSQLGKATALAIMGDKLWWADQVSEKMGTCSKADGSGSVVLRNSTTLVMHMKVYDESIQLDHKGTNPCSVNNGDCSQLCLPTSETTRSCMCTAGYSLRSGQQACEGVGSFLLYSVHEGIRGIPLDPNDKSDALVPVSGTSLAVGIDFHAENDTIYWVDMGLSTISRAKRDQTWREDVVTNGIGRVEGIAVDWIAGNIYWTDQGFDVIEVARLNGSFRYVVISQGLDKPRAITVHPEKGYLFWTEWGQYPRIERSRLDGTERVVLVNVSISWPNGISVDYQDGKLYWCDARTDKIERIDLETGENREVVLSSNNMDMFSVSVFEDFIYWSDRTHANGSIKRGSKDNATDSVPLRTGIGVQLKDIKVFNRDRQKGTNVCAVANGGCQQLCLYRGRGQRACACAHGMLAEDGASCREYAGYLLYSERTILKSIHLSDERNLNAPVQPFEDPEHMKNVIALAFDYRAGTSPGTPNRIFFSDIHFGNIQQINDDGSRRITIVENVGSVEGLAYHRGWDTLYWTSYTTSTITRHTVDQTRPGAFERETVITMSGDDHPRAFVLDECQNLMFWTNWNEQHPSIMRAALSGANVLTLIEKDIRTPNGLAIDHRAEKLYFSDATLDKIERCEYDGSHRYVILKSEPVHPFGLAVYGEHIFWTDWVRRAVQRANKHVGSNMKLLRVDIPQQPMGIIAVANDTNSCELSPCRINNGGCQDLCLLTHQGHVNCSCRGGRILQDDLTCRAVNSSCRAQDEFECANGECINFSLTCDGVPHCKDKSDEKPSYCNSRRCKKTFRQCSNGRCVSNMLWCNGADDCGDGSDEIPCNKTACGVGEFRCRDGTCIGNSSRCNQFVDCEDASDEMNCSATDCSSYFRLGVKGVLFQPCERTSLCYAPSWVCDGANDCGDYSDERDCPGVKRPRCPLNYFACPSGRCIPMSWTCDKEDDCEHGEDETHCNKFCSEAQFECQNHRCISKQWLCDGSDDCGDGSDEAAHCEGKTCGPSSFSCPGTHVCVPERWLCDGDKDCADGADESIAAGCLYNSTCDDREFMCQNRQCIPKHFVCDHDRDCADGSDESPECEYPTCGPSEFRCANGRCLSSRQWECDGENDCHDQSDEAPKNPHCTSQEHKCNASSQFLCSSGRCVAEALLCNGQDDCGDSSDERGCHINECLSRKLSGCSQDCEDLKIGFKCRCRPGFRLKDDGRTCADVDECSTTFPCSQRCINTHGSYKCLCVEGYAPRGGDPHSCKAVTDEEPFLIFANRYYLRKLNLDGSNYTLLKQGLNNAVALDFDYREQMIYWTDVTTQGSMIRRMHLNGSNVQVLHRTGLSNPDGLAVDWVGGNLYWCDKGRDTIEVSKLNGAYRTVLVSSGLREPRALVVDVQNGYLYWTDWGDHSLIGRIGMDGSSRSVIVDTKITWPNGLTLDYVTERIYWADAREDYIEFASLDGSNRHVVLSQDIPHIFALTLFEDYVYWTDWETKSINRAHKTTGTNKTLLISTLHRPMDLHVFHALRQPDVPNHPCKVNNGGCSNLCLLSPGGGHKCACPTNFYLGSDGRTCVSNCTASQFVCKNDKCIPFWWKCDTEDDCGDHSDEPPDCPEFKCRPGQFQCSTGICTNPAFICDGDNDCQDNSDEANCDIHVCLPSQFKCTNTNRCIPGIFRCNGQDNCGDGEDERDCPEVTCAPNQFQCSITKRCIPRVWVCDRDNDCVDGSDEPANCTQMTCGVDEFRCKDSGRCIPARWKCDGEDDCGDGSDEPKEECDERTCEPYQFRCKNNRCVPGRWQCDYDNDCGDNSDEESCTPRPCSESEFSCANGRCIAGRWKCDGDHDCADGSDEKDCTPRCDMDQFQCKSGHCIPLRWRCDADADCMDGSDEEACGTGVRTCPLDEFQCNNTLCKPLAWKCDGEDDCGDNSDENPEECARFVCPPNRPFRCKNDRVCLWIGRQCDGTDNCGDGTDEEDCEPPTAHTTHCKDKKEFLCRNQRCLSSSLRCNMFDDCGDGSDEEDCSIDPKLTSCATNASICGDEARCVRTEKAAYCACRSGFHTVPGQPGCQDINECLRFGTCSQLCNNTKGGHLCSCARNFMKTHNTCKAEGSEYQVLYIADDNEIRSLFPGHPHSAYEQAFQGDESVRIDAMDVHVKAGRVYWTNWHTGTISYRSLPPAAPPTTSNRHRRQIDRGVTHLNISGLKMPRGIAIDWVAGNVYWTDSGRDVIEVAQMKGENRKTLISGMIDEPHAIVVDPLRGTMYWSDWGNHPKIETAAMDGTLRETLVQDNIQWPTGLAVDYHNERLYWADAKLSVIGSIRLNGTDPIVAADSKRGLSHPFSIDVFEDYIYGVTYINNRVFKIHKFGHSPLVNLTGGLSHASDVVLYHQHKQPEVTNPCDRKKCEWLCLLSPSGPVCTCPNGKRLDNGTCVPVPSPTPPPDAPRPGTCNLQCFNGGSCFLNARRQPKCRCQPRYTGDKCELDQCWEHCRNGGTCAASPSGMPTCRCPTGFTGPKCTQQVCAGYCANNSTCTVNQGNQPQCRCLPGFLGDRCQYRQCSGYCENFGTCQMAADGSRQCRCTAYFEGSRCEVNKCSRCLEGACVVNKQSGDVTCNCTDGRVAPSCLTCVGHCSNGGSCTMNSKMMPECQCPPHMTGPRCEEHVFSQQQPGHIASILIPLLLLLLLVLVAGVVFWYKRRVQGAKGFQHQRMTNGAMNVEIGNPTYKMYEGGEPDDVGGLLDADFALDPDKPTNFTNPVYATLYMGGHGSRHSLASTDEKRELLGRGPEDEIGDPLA

In the case of “E7 antigen: HPV16 E7 protein (full length), SEQ ID NO: 21, antigen itself only”, the “E7 antigen specific cell mediated immune response” value ([1]; combined with GPI-0100 or QS-21) is reported as “weak to strong”.

With QS-21 [reference compound] the “adjuvant comparison for stimulating both humoral and cell mediated immune responses” value ([1]; with E7 immunogenic proteins, compared with alum) was “better adjuvants”.

In the case of “RAP1: 39 kDa ER resident protein and molecular chaperone for LDL receptor-related protein”, the Kd (CD91) is given as roughly 3 nM.
